# Tests used:
# [1] = Particle size of API and excipients; format: physicochemical; settings: API/excipient powder
# From the text: Microscopy images showing the morphology of IBU and DIZ particles are shown in FIGS. 29A and 29B, respectively. IBU and DIZ both are fine particles with a d50 of 21.87 μm and 23.12 μm, respectively.
# [2] = Bulk and flow properties of powders (FT4 Powder Rheometer); format: physicochemical; settings: API/excipient powder
Compound,Particle size d10 [1],Particle size d50 [1],Particle size d90 [1],Bulk density [2],Compressibility [2],Flow function coefficient (ffc) [2]
OC[C@H]1O[C@@H](O[C@H]2[C@H](O)[C@@H](O)C(O)O[C@@H]2CO)[C@H](O)[C@@H](O)[C@H]1O (some centres unmarked) [Anhydrous lactose],26.03 μm,188.75 μm,425.90 μm,0.74 g/mL,13.10%,5.69
"CC(C)Cc1ccc(C(C)C(=O)O)cc1 (centres unmarked) [Ibuprofen (IBU), Ibuprofen, reference compound]",4.86 μm,21.87 μm,75.31 μm,0.53 g/mL,25.07%,3.87
Magnesium stearate,2.76 μm,6.86 μm,15.10 μm,0.31 g/mL,38.97%,5.18
"CN1C(=O)CN=C(c2ccccc2)c2cc(Cl)ccc21 [Diazepam (DIZ), Diazepam, reference compound]",5.74 μm,23.12 μm,110.75 μm,–,32.73%,2.78

# Source: patent publication US11020352B2, “Systems and methods for the fabrication of tablets, including pharmaceutical tablets” (Massachusetts Institute of Technology, priority 2017, dated 2021)
